Source: patent US8394362B2, “Gem difluorinated C-glycopeptides, their preparation and their use for the preservation of biological materials and/or in cryosugery” (priority 2004, dated 2013)
Read-outs that look alike come from different tables or passages of the source.

Assays:
HEK 293 cells = test: Preservation of HEK 293 kidney cells at low temperatures (Trypan blue cell count); assay type: cell-based
Procedure: The cells were then diluted to 75,000 cells/mL. Subsequently they were distributed over 6 plates with six 3 mL-wells per plate. This concentration is a good compromise between a concentration sufficiently low to prevent cell death by autocytotoxicity and sufficiently high to permit cell sampling and counting without any pre-concentration likely to reduce their survival. Each plate had two control wells not containing product 15, two wells with concentrations of product 15 adjusted to 0.01 mg/mL, and two others with 0.1 mg/mL. Each plate was then incubated at the following temperatures: 4° C., 2° C., 0° C., −2° C., −4° C., and −20° C. Each well was subsequently sampled at the following incubation times: 2, 8, and 22 hours.

erythrocytes = test: Preservation of erythrocytes: haemolysis at different temperatures; assay type: cell-based, human
Procedure: The death of erythrocytes can be ascertained by rupture of the plasma membrane. This phenomenon is called haemolysis. Detection of haemolysis is the chief tool used in this experiment to determine the effect of product 15 at different temperatures on the preservation of erythrocytes. Blood sampling→Aliquots→Addition of AAGP (compound 15)→Various temperatures→Observation of haemolysis Product 15 was tested at concentrations of 0 mg/mL, 0.1 mg/mL, 1.0 mg/mL at temperatures of 3, 0, −3, −5, −10, −15, −23, −78° C. From a sample of human blood in a borosilicate heparinized tube, microtubes of 275 μL were filled to full capacity. One third of the microtubes were completed with 2.75 μL of product 15 (10 mg/mL in H2O), and one third of the microtubes were completed with 27.5 μL of product 15 (10 mg/mL in H2O). The blood was divided among the tubes to full capacity to prevent air contact as much as possible. […] The microtubes were frozen on a microtube support and the experiment was conducted using a slow-freeze apparatus at −78° C., whilst thawing was always conducted at room temperature on the microtube rack. After thawing, the microtubes were delicately homogenized by inverting a few times and a sample of erythrocytes was taken. […] Co is the initial Ery count • Cexp is the experimental Ery count Materials

blood platelets = test: Preservation of blood platelets: platelet clustering over 21 days; assay type: cell-based
Procedure: The purpose is to test product 15 on the preservation of blood platelets to improve current protocols which only allow their preservation for 5 days. The test was conducted at four different temperatures 22° C., 15° C., 4° C. and finally 0° C. Platelet follow-up lasted 21 days to examine platelet clustering. Clustering is one of the first and most definitive indicators of platelet degradation. During their degradation, the platelets become active, lose their morphology, become fibrous, form clusters and finally degenerate. A platelet count is made but the result is rather more based on the extent of clustering.

[1] = test system: CCD-27Sk fetal fibroblast skin cells
Source text: […] Materials

[2] = test system: adult primary skin fibroblasts; test: Protection of adult primary skin fibroblasts in culture medium; assay type: cell-based; details: 15 mg/mL, after six days, culture media
Procedure: This test was extended to adult primary fibroblasts.
For adult fibroblasts, a culture medium (rich in factors) is used,
The concentration of product 15 is 15 mg/mL.

embryonic fibroblasts = details: 15 mg/mL; 1 mM H2O2; 37° C.; after 10 hours; serum-free medium with 0.5 mM EDTA
H9c2(2-1) cells = assay type: cell-based, rat
[3] = 0.1 mg/mL, 40 min, −78° C. with slow cooling
[4] = 0.1 mg/mL, 2 h, 3, 0, −3, −5 and −10° C.
[5] = 0.1 mg/mL, 4 h, 3, 0, −3, −5 and −10° C.
[6] = 0.1 mg/mL, 9 h, 3, 0, −3, −5 and −10° C.
[7] = 0.1 mg/mL, 24 h, 3, 0, −3, −5 and −10° C.
[8] = 1.0 mg/mL, 40 min, −78° C. with slow cooling
[9] = 1.0 mg/mL, 2 h, 3, 0, −3, −5 and −10° C.
[10] = 1.0 mg/mL, 4 h, 3, 0, −3, −5 and −10° C.
[11] = 1.0 mg/mL, 9 h, 3, 0, −3, −5 and −10° C.
[12] = 1.0 mg/mL, 24 h, 3, 0, −3, −5 and −10° C.

Q: What does the source list for `C[C@H](NC(=O)[C@H](C)NC(=O)[C@@H](N)CCCCNC(=O)C(F)(F)C1(O)O[C@H](CO)[C@H](O)[C@H](O)[C@H]1O)C(=O)O` (some centres unmarked) [product 15]?
A: cell survival compared with negative control (HEK 293 cells; 0.01 mg/mL): does not appear to improve cell survival; cell survival rate compared with negative control (HEK 293 cells; 0.10 mg/mL, five of six temperatures (4, 2, 0, −2, −4, −20° C.), 2, 8, 22 h): led to the best cell survival rates even if the improvement remained low; cell appearance and Trypan blue uptake after thawing (HEK 293 cells; −20° C., after two hours): maintained the appearance of spherical retractile cells and did not absorb Trypan blue; cells remaining after re-incubation (HEK 293 cells; −20° C., eight hours' incubation, both concentrations (0.01 and 0.1 mg/mL)): complete disappearance of all cells; % Haemolysis (erythrocytes; [3]): 36%; % erythrocytes (erythrocytes; [3]): 64%; % Ery (erythrocytes; [4]): 100%; % Haemolysis (erythrocytes; [4]): 0%; % Ery (erythrocytes; 0.1 mg/mL, 2 h, −15° C.): 73%; % Haemolysis (erythrocytes; 0.1 mg/mL, 2 h, −15° C.): 27%; Number of erythrocytes (erythrocytes; 0.1 mg/mL, 2 h, −15° C.): 90; % Ery (erythrocytes; [5]): 100%; % Haemolysis (erythrocytes; [5]): 0%; % Ery (erythrocytes; 0.1 mg/mL, 4 h, −15° C.): 0%; % Haemolysis (erythrocytes; 0.1 mg/mL, 4 h, −15° C.): 100%; Number of erythrocytes (erythrocytes; 0.1 mg/mL, 4 h, −15° C.): 0; % Ery (erythrocytes; [6]): 100%; % Haemolysis (erythrocytes; [6]): 0%; % Ery (erythrocytes; 0.1 mg/mL, 9 h, −15° C.): 0%; % Haemolysis (erythrocytes; 0.1 mg/mL, 9 h, −15° C.): 100%; Number of erythrocytes (erythrocytes; 0.1 mg/mL, 9 h, −15° C.): 0; % Ery (erythrocytes; [7]): 100%; % Haemolysis (erythrocytes; [7]): 0%; % Haemolysis (erythrocytes; [8]): 97%; % erythrocytes (erythrocytes; [8]): 3%; % Ery (erythrocytes; [9]): 100%; % Haemolysis (erythrocytes; [9]): 0%; % Ery (erythrocytes; 1.0 mg/mL, 2 h, −15° C.): 98%; % Haemolysis (erythrocytes; 1.0 mg/mL, 2 h, −15° C.): 2%; Number of erythrocytes (erythrocytes; 1.0 mg/mL, 2 h, −15° C.): 120; % Ery (erythrocytes; [10]): 100%; % Haemolysis (erythrocytes; [10]): 0%; % Ery (erythrocytes; 1.0 mg/mL, 4 h, −15° C.): 100%; % Haemolysis (erythrocytes; 1.0 mg/mL, 4 h, −15° C.): 0%; Number of erythrocytes (erythrocytes; 1.0 mg/mL, 4 h, −15° C.): 133; % Ery (erythrocytes; [11]): 100%; % Haemolysis (erythrocytes; [11]): 0%; % Ery (erythrocytes; 1.0 mg/mL, 9 h, −15° C.): 98%; % Haemolysis (erythrocytes; 1.0 mg/mL, 9 h, −15° C.): 2%; Number of erythrocytes (erythrocytes; 1.0 mg/mL, 9 h, −15° C.): 121; % Ery (erythrocytes; [12]): 100%; % Haemolysis (erythrocytes; [12]): 0%; protection of erythrocytes (erythrocytes; temperature below −15° C., 1.0 mg/mL): no protection is observed; haemolysis (erythrocytes; temperature range of 2 to −10° C., 0 to 24 hours, with or without product): no haemolysis; protection of erythrocytes (erythrocytes; −15° C.): really protects the erythrocytes; protection of erythrocytes (erythrocytes; −15° C., 4 and 9 hours, 1.0 mg/mL): complete protection; protection of erythrocytes (erythrocytes; −15° C., after two hours, 0.1 mg/mL): partly protects the erythrocytes; protection of erythrocytes (erythrocytes; −15° C., after two hours, 1.0 mg/mL): completely; relation of % haemolysis to concentration (erythrocytes; −78° C. slow cooling, freezing point, after 40 minutes): direct correlation is observed between % haemolysis and concentrations of product 15; platelet clustering (blood platelets; 0° C., with or without glycoprotein): no clustering is seen; platelet clustering (blood platelets; 4° C., irrespective of concentrations): almost no clustering is observed; platelet clustering compared with control (blood platelets; 15° C., over time): a greater increase in clustering is observed in the control than in the samples containing the compound; time up to which samples do not show any platelet clusters (blood platelets; 22° C., 1 mg/mL and 4 mg/mL): up to 7 days; platelet clustering (blood platelets; 22° C., 4 mg/mL (most concentrated samples)): the least clustering; platelet clustering compared with control (blood platelets; 22° C., 13, 17 and 21 days): true inhibition of platelet clustering; preservation of skin fibroblasts, overall ([1]; 5 mg/mL (8.6 mM), 22, 3, −3, −20° C.): better preservation in the presence of product 15 at all temperatures except at −20 °C; survival rates over time compared with control ([1]; 5 mg/mL, 22° C., 3° C., −3° C. (FIGS. 48 to 50)): much better survival rates; cell preservation with or without product ([1]; 5 mg/mL, 8 hours (FIG. 44), entire temperature range): no difference is found; cell survival rate compared with control ([1]; 5 mg/mL, 20 hours (FIG. 46)): better cell survival rate with monomer 15 than with the control; survival rate ([1]; 5 mg/mL, 20 hours (FIG. 46), −3° C.): 50%; cell preservation compared with control ([1]; 5 mg/mL, after 12 hours, 22° C. and −3° C.): better preservation; cell survival compared with control ([1]; 5 mg/mL, after 30 hours (FIG. 47), especially at 3° C.): distinct improvement; survival ([1]; 5 mg/mL, after 30 hours (FIG. 47), −3° C.): 70%; cell fate on freezing ([1]; 5 mg/mL, −20° C.): death of the cells after thawing; survival ([1]; 10 mg/mL, 15° C., after four days, low-serum media): 46%; cells preserved ([1]; 10 mg/mL, 37° C., after four days, low-serum media): approximately 100%; cell morphology ([1]; 10 mg/mL, Day 1 (FIG. 55)): preserve a spherical shape and maintain their integrity; cell survival rate versus concentration ([1]; 3 and −3° C., 20 and 34 hours, up to 15 mg/mL): improves cell survival rate; protective effect on cells ([1]; 3 and −3° C., concentrations up to 15 mg/mL, after 34 hours): ~100%; survival ([2]; 3° C.): 100%; cells protected ([2]; 15° C.): 100%; survival (embryonic fibroblasts): approximately 80%; number of living cells over incubation time (H9c2(2-1) cells; 1 mg/mL, −3° C. (FIG. 40)): slow decrease over incubation time in the number of living cells; dependence of cell survival rate on concentration (H9c2(2-1) cells; 0.1, 0.5 and 1 mg/mL): better results at 1 mg/mL than at 0.1 and 0.5 mg/mL; survival percentage over time (H9c2(2-1) cells; main experiment, 1 mg/mL, 4° C., up to 45 hours): better survival percentage over the entire duration of the experiment; survival (H9c2(2-1) cells; main experiment, 1 mg/mL, 22° C., after 45 hours): 65%; protective effect, monomer versus dimer (H9c2(2-1) cells; main experiment, 1 mg/mL, after 16 hours, 4° C.): gives the best results; cell survival compared with control (H9c2(2-1) cells; main experiment, 1 mg/mL, up to 8 hours, 22, 4, −3 and −10° C.): no significant difference; survival compared with control (H9c2(2-1) cells; main experiment, 1 mg/mL, −10° C.): slight improvement; survival percentage (H9c2(2-1) cells; preliminary experiment, 2° C. as printed (method −2° C.), 20 hours, 0.1 mg/mL): identical to the control
